Measurements published in patent US20250082674A1, “METHODS OF TREATING COPPER METABOLISM-ASSOCIATED DISEASES OR DISORDERS” (priority 2021, published 2025).
Read-outs that look alike come from different tables or passages of the source.

How the values were obtained:
[1] = test system: patients with Wilson disease (WD); settings: for Transformed CGI-I Mean (SD): scores −3 (Very much improved) to 3 (Very much worse)
Excerpt: Dose modification, if required, was made as described herein.

[2] = human, in vivo
^64Cu in blood = test system: ^64Cu in blood
Procedure: 15 minutes after intravenous administration of ^64Cu, a dynamic PET-MR scan was performed, followed by additional scans at 1, 2, 6, 20, 48, 54, and 68 hours. Venous blood samples were collected for quantitation of radioactivity at multiple time points.

patients with WD = test system: patients with WD
Excerpt: All patients who completed the 24-week Study Period were enrolled in a 36-month Extension Period.

Bis-choline tetrathiomolybdate [BC-TTM]
UWDRS Part III-speech (0-4) LSM (SE) change from baseline ([1]; Week 96): −0.2 (0.05)
UWDRS Part III-speech (0-4) Mean (SD) change from baseline ([1]; Week 96): −0.2 (0.57)
Transformed CGI-I Mean (SD) ([1]; Week 96): −0.5 (0.98)
CGI-S (1 to 7, 1 is normal) LSM (SE) change from baseline ([1]; Week 120): −0.7 (0.11)
CGI-S (1 to 7, 1 is normal) Mean (SD) change from baseline ([1]; Week 120): −0.6 (1.06)
UWDRS Part II (0-40) LSM (SE) change from baseline ([1]; Week 120): −1.7 (0.35)
UWDRS Part II (0-40) Mean (SD) change from baseline ([1]; Week 120): −1.4 (3.48)
UWDRS Part III (0-175) LSM (SE) change from baseline ([1]; Week 120): −5.27 (1.016)
UWDRS Part III (0-175) Mean (SD) change from baseline ([1]; Week 120): −4.08 (11.618)
UWDRS Part III functional subscale (0-10) LSM (SE) change from baseline ([1]; Week 120): −0.392 (0.0952)
UWDRS Part III functional subscale (0-10) Mean (SD) change from baseline ([1]; Week 120): −0.410 (1.1867)
UWDRS Part III-arising from chair (0-4) LSM (SE) change from baseline ([1]; Week 120): −0.1 (0.06)
UWDRS Part III-arising from chair (0-4) Mean (SD) change from baseline ([1]; Week 120): −0.2 (0.83)
UWDRS Part III-gait (0-4) LSM (SE) change from baseline ([1]; Week 120): 0.04 (0.172)
UWDRS Part III-gait (0-4) Mean (SD) change from baseline ([1]; Week 120): 0.26 (1.683)
UWDRS Part III-handwriting (0-4) LSM (SE) change from baseline ([1]; Week 120): −0.3 (0.07)
UWDRS Part III-handwriting (0-4) Mean (SD) change from baseline ([1]; Week 120): −0.5 (0.68)
UWDRS Part III-speech (0-4) LSM (SE) change from baseline ([1]; Week 120): −0.2 (0.06)
UWDRS Part III-speech (0-4) Mean (SD) change from baseline ([1]; Week 120): −0.1 (0.61)
Transformed CGI-I Mean (SD) ([1]; Week 120): −0.7 (0.92)
CGI-S (1 to 7, 1 is normal) LSM (SE) change from baseline ([1]; Week 144): −0.6 (0.12)
CGI-S (1 to 7, 1 is normal) Mean (SD) change from baseline ([1]; Week 144): −0.6 (0.78)
UWDRS Part II (0-40) LSM (SE) change from baseline ([1]; Week 144): −2.0 (0.39)
UWDRS Part II (0-40) Mean (SD) change from baseline ([1]; Week 144): −2.0 (4.68)
UWDRS Part III (0-175) LSM (SE) change from baseline ([1]; Week 144): −6.38 (1.112)
UWDRS Part III (0-175) Mean (SD) change from baseline ([1]; Week 144): −5.99 (12.215)
UWDRS Part III functional subscale (0-10) LSM (SE) change from baseline ([1]; Week 144): −0.489 (0.1046)
UWDRS Part III functional subscale (0-10) Mean (SD) change from baseline ([1]; Week 144): −0.573 (1.2617)
UWDRS Part III-arising from chair (0-4) LSM (SE) change from baseline ([1]; Week 144): −0.2 (0.07)
UWDRS Part III-arising from chair (0-4) Mean (SD) change from baseline ([1]; Week 144): −0.3 (1.03)
UWDRS Part III-gait (0-4) LSM (SE) change from baseline ([1]; Week 144): −0.25 (0.186)
UWDRS Part III-gait (0-4) Mean (SD) change from baseline ([1]; Week 144): 0.00 (1.950)
UWDRS Part III-handwriting (0-4) LSM (SE) change from baseline ([1]; Week 144): −0.3 (0.08)
UWDRS Part III-handwriting (0-4) Mean (SD) change from baseline ([1]; Week 144): −0.5 (0.59)
UWDRS Part III-speech (0-4) LSM (SE) change from baseline ([1]; Week 144): −0.3 (0.07)
UWDRS Part III-speech (0-4) Mean (SD) change from baseline ([1]; Week 144): −0.2 (0.59)
Transformed CGI-I Mean (SD) ([1]; Week 144): −0.7 (0.76)
covariate effect of age on plasma total molybdenum clearance [2]: age is not a significant covariate
Intravenously injected ^64Cu in the blood (^64Cu in blood; Post (after BC-TTM treatment), 5 sec): 0.05
Intravenously injected ^64Cu in the blood (^64Cu in blood; Post (after BC-TTM treatment), 15 sec): 1.02
Intravenously injected ^64Cu in the blood (^64Cu in blood; Post (after BC-TTM treatment), 60 sec): 4.16
Intravenously injected ^64Cu in the blood (^64Cu in blood; Post (after BC-TTM treatment), 120 sec): 3.47 (4.65)
Intravenously injected ^64Cu in the blood (^64Cu in blood; Post (after BC-TTM treatment), 200 sec): 5.01
Intravenously injected ^64Cu in the blood (^64Cu in blood; Post (after BC-TTM treatment), 300 sec): 6.99
Intravenously injected ^64Cu in the blood (^64Cu in blood; Post (after BC-TTM treatment), 600 sec): 7.03
Intravenously injected ^64Cu in the blood (^64Cu in blood; Post (after BC-TTM treatment), 1 hour): 5.43
Intravenously injected ^64Cu in the blood (^64Cu in blood; Post (after BC-TTM treatment), 2 hours): 5.09
Intravenously injected ^64Cu in the blood (^64Cu in blood; Post (after BC-TTM treatment), 6 hours): 2.54
Intravenously injected ^64Cu in the blood (^64Cu in blood; Post (after BC-TTM treatment), 20 hours): 0.77 (0.41)
Intravenously injected ^64Cu in the blood (^64Cu in blood; Post (after BC-TTM treatment), 48 hours): 0.51
Intravenously injected ^64Cu in the blood (^64Cu in blood; Post (after BC-TTM treatment), 54 hours): 0.42
Intravenously injected ^64Cu in the blood (^64Cu in blood; Post (after BC-TTM treatment), 68 hours): 0.42
Intravenously injected ^64Cu in the blood (^64Cu in blood; Pre (before BC-TTM treatment), 5 sec): 0.00
Intravenously injected ^64Cu in the blood (^64Cu in blood; Pre (before BC-TTM treatment), 15 sec): 0.00
Intravenously injected ^64Cu in the blood (^64Cu in blood; Pre (before BC-TTM treatment), 60 sec): 5.30
Intravenously injected ^64Cu in the blood (^64Cu in blood; Pre (before BC-TTM treatment), 120 sec): 5.15 (4.28)
Intravenously injected ^64Cu in the blood (^64Cu in blood; Pre (before BC-TTM treatment), 200 sec): 5.13
Intravenously injected ^64Cu in the blood (^64Cu in blood; Pre (before BC-TTM treatment), 300 sec): 5.88
Intravenously injected ^64Cu in the blood (^64Cu in blood; Pre (before BC-TTM treatment), 600 sec): 4.35
Intravenously injected ^64Cu in the blood (^64Cu in blood; Pre (before BC-TTM treatment), 1 hour): 0.78
Intravenously injected ^64Cu in the blood (^64Cu in blood; Pre (before BC-TTM treatment), 2 hours): 0.64
Intravenously injected ^64Cu in the blood (^64Cu in blood; Pre (before BC-TTM treatment), 6 hours): 0.42
Intravenously injected ^64Cu in the blood (^64Cu in blood; Pre (before BC-TTM treatment), 20 hours): 0.32 (0.06)
Intravenously injected ^64Cu in the blood (^64Cu in blood; Pre (before BC-TTM treatment), 48 hours): 0.33
Intravenously injected ^64Cu in the blood (^64Cu in blood; Pre (before BC-TTM treatment), 54 hours): 0.28
Intravenously injected ^64Cu in the blood (^64Cu in blood; Pre (before BC-TTM treatment), 68 hours): 0.25
64Cu peak in blood and clearance from blood after treatment (^64Cu in blood; WD patients, FIG. 31): higher peak in the blood and its clearance from blood was delayed
64Cu in the blood after versus before treatment (^64Cu in blood; WD patients, from 1 hour to 48 hours after intravenous 64Cu): significantly more
liver status, Modified Nazer Score (patients with WD; Study 201): stabilized or improved in the majority of patients
neurological status, change from baseline in UWDRS Part III (patients with WD; Study 201, p<0.0001): significant improvements
patient-reported disability, change from baseline in UWDRS Part II (patients with WD; Study 201, p<0.001): significant improvements
participants with total cholesterol increase above the ULN (patients with WD; human, in vivo): 7 participants
patients with reversible liver (function) test elevations (patients with WD; human, in vivo): 39%
tolerability (patients with WD; human, in vivo): generally well-tolerated
